The assay deals with T1, integrin α4β7, expressed on the RPMI 8866 (human B lymphoid cell line) cell membrane with MAdCAM-1 (Homo sapiens, UniProt P13612+P26010).
T1 construct: integrin α4β7, expressed on the RPMI 8866 (human B lymphoid cell line) cell membrane; endogenous in cells; host or cells: RPMI 8866 cells (integrin). zzMAdCAM-1 was made in house in baculovirus-infected Spodoptera frugiperda cells
T1 sequence (P13612 34-1032): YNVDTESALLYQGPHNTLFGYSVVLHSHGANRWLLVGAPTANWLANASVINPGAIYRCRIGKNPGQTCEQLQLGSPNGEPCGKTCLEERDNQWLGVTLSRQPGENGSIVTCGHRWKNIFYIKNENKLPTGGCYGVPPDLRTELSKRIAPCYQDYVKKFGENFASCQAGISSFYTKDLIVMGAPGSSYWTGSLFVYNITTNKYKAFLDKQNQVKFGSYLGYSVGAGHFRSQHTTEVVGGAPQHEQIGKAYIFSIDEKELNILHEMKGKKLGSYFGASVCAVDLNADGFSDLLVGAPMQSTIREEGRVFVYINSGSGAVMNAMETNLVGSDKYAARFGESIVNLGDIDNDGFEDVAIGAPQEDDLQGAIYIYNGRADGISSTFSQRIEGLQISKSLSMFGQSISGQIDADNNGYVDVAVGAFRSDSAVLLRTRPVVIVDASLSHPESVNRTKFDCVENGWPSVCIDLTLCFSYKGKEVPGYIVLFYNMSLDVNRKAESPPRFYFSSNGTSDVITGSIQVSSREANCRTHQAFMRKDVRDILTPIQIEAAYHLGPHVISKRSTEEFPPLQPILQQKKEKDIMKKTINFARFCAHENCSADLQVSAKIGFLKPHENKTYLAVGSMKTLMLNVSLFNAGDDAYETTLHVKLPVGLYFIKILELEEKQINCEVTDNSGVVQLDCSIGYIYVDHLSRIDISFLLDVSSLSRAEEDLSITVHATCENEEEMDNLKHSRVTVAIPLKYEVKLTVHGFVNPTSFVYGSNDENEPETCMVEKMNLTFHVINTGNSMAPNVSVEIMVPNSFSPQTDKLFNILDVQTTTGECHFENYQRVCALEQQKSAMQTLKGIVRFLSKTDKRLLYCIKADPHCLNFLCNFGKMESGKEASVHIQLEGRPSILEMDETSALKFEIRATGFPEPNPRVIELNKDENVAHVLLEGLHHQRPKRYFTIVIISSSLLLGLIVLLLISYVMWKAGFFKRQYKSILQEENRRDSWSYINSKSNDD
T1 sequence (P26010 20-798): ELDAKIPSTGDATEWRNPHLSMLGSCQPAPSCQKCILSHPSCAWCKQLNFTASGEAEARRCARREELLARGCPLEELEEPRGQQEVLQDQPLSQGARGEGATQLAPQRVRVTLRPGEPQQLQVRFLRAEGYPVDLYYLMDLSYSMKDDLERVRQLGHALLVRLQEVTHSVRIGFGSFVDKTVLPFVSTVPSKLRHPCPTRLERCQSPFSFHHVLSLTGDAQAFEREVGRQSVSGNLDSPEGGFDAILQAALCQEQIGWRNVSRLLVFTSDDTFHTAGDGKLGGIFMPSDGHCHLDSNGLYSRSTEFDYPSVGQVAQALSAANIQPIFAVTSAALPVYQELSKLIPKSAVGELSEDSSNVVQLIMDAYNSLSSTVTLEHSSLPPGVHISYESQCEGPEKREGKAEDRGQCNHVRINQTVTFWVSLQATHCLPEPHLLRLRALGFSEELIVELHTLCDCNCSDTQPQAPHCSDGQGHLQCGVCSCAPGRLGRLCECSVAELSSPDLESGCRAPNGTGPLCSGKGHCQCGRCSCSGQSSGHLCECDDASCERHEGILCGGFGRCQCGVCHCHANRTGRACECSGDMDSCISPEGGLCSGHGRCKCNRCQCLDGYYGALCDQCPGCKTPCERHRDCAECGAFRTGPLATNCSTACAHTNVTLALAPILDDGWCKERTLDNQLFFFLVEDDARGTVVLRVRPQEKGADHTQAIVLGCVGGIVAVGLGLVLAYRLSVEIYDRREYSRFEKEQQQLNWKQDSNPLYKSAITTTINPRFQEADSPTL
As to the kind of experiment: RPMI 8866/MAdCAM-1 adhesion assay. Format: cell-based. Conditions: RPMI 8866 cell adhesion to MAdCAM-1, 1 mM MnCl2; mean of n experiments. How it is done:
(4) RPMI 8866/MAdCAM-1 Adhesion Assay
This assay was used to investigate the interaction of the integrin α4β7, expressed on the RPMI 8866 (human B lymphoid cell line) cell membrane with MAdCAM-1. Polystyrene 96-well microtitre plates were coated with human immunoglobulin G (IgG; Sigma Chemicals, UK, Product No. 14506) at a concentration of 0.05 mg ml^−1 in bicarbonate buffer (36 mM NaHCO3 and 22 mM Na2CO3, prepared in Dulbecco's phosphate buffered saline at pH 9.8 (PBS); Sigma Chemicals, UK, Product No. 14190-094) for 2 hours at 37° C. This solution was then aspirated and the plates were washed twice with PBS.
MAdCAM-1 was prepared by cloning its constituent domains, under the control of a polyhedrin promoter, into a baculovirus expression system with a zz (Protein A) tag. The amplified baculovirus containing zzMAdCAM-1 was used to infect Spodoptera frugiperda cells growing in suspension in SF900II medium supplemented with 5% foetal calf serum. The cells were infected at a multiplicity of infection of 1 and harvested 48 hours later by centrifugation. Protease inhibitors were added and the culture supernatant was clarified either by filtration through a 0.2 μm filter or by centrifugation. The zzMAdCAM-1 was then purified from this clarified medium using an IgG agarose column, equilibrated with either 20 mM sodium phosphate pH 7.2 alone or in the presence of 0.5M sodium chloride. Elution of zzMAdCAM-1 from the column was mediated using 3M ammonium thiocyanate. The sample was then dialysed thoroughly, using 20 mM sodium phosphate pH 7.2, to remove the ammonium thiocyanate. The purified zzMAdCAM-1 was then concentrated to a small volume (Amicon stirred cell concentrators) until a concentration of 0.5 mg ml^−1 was obtained, calculated using the extinction coefficient value.
This solution of zzMAdCAM-1 was diluted 1:2500 and then incubated overnight at 4° C. in the IgG coated microtitre plates with 3% bovine serum albumin (BSA) in PBS, followed by aspiration and two further washes with PBS. A concentration of the RPMI 8866 cells (3×10^6 cells ml^−1), grown in cell media RPMI 1640 (HyClone Ltd, Product No. B-9106-L) supplemented with 10% heat inactivated foetal calf serum (FCS; Gibco BRL, Product No. 10099-075) and 2 mM L-glutamine, were labelled with 10 μM of the fluorescent dye, 2′, 7′-bis(2-carboxyethyl)-5-(e6)-carboxyfluorescein acetoxymethyl ester (BCECF-AM; Molecular Probes Inc. Product No. B-1150) at 37° C. for 10 minutes. The excess dye was then removed by centrifugation at 500×g for 5 minutes and the cells were resuspended at a concentration of 6×10^6 cells ml^−1 in Hank's balanced salt solution (HBSS; Gibco BRL, Product No. 1419D-094).
Equal volumes of compounds (dissolved in an appropriate solvent and diluted in HBSS containing 1 mM MnCl2) and the labelled RPMI 8866 cells, were added to the MAdCAM-1 coated plates and adhesion was allowed to proceed for 30 minutes at 37° C. Non, or loosely adhered cells, were removed by inversion of the plate and blotted with tissue paper. Two washes with PBS and further blotting were then performed, before the addition of 2% detergent (Triton-X®; Sigma Chemicals UK, Product No. X100). Counting was undertaken in a Wallac Victor™ Fluorimeter, where low fluorescence values were indicative of compounds which had inhibited adhesion. All samples were assayed in singlicate and the following four parameter curve fit, shown by Equation (I) (above) was applied. Wherein the maximum and minimum values are those compared to adhesion in the absence of compound and in the presence of the dipotassium salt of 2 mM EDTA; Sigma Chemicals, UK, Product No. ED2P). Data is presented as the mean pIC50 with the standard error of the mean of n experiments.

Molecules are shown by their SMILES.

A word on the IC50: it is the concentration at which inhibition is half-maximal. The compound `CC(=O)N1CCN(C(=O)Oc2ccc(C[C@H](NC(=O)[C@H](CC(C)C)NC(=O)COc3ccccc3C(C)(C)C)C(=O)O)cc2)CC1` [Example 16, (2S)-3-(4-{[(4-Acetyl-1-piperazinyl)carbonyl]oxy}phenyl)-2-{[(2S)-2-({2-[2-(tert-butyl)phenoxy]acetyl}amino)-4-methylpentanoyl]amino}propanoic acid] showed an IC50 of 158 nM. In turn, `Cc1ccccc1OCC(=O)N[C@@H](CC(C)C)C(=O)N[C@@H](Cc1ccc(OC(=O)N2CCC(C(N)=O)CC2)cc1)C(=O)O` [Example 27, (2S)-3-[4-({[4-(Aminocarbonyl)-1-piperidinyl]carbonyl}oxy)phenyl]-2-[((2S)-4-methyl-2-{[2-(2-methylphenoxy)acetyl]amino}pentanoyl)amino]propanoic acid] gave an IC50 of 31.6 nM. For the compound `CC(C)C[C@H](NC(=O)COc1ccccc1I)C(=O)N[C@@H](Cc1ccc(OC(=O)N2CCOCC2)cc1)C(=O)O` [Example 23, (2S)-2-[((2S)-2-{[2-(2-Iodophenoxy)acetyl]amino}-4-methylpentanoyl)amino]-3-{4-[(4-morpholinylcarbonyl)oxy]phenyl}propanoic acid], the half-inhibitory concentration (IC50) was 63.1 nM. With `CC(C)C[C@H](NC(=O)c1cccc2c1oc1ccccc12)C(=O)N[C@@H](Cc1ccc(OC(=O)N2CCC(C(N)=O)CC2)cc1)C(=O)O` [Example 28, (2S)-3-[4-({[4-(Aminocarbonyl)-1-piperidinyl]carbonyl}oxy)phenyl]-2-({(2S)-2-[(dibenzo[b,d]furan-4-ylcarbonyl)amino]-4-methylpentanoyl}amino)propanoic acid] the figure was 126 nM; with `Cc1ccccc1OCC(=O)N[C@@H](CC(C)C)C(=O)N[C@@H](Cc1ccc(OC(=O)N2CCN(C(=O)c3ccccc3)CC2)cc1)C(=O)O` [Example 21, (2S)-3-(4-{[(4-Benzoyl-1-piperazinyl)carbonyl]oxy}phenyl)-2-[((2S)-4-methyl-2-{[2-(2-methylphenoxy)acetyl]amino}pentanoyl)amino]propanoic acid], 200 nM.

Compound `CC(=O)N1CCN(C(=O)Oc2ccc(C[C@H](NC(=O)[C@H](CC(C)C)NC(=O)COc3ccccc3C)C(=O)O)cc2)CC1` [Example 17, (2S)-3-(4-{[(4-Acetyl-1-piperazinyl)carbonyl]oxy}phenyl)-2-[((2S)-4-methyl-2-{[2-(2-methylphenoxy)acetyl]amino}pentanoyl)amino]propanoic acid] gave a 50% inhibitory concentration (IC50) of 158 nM. On to `CC(C)C[C@H](NC(=O)COc1ccccc1C(C)(C)C)C(=O)N[C@@H](Cc1ccc(OC(=O)N2CCOCC2)cc1)C(=O)O` [Example 24, (2S)-2-{[(2S)-2-({2-[2-(Tert-butyl)phenoxy]acetyl}amino)-4-methylpentanoyl]amino}-3-{4-[(4-morpholinylcarbonyl)oxy]phenyl}propanoic acid], for which the IC50 is 251 nM. The same measure for `CC(C)C[C@H](NC(=O)COc1ccccc1C(C)(C)C)C(=O)N[C@@H](Cc1ccc(OC(=O)N2CCN(C(=O)c3ccccc3)CC2)cc1)C(=O)O` [Example 20, (2S)-3-(4-{[(4-Benzoyl-1-piperazinyl)carbonyl]oxy}phenyl)-2-{[(2S)-2-({2-[2-(tert-butyl)phenoxy]acetyl}amino)-4-methylpentanoyl]amino}propanoic acid]: 200 nM.

The record behind these values is US6867192B1, “Compounds useful in the treatment of inflammatory diseases” (priority 1998, dated 2005).
